# Active and inactive are the calls of the source.
# Experiments:
# [1] = target: Peroxisome proliferator-activated receptor gamma/Nuclear receptor coactivator 2 (Homo sapiens, UniProt P37231); assay: (§1) TR-FRET dose response biochemical High Throughput Screening assay for agonists of the steroid receptor coactivator 2 (SRC-2) recruitment by the peroxisome proliferator-activated receptor gamma (PPAR gamma): non-selective agonists. [Related pubchem assays: 1297, 1032 ]; format: functional
# [2] = target: DNA dC->dU-editing enzyme APOBEC-3G (Homo sapiens, UniProt Q9HC16); assay: Dose Response confirmation of small molecule APOBEC3G DNA Deaminase Inhibitors via a fluorescence-based single-stranded DNA deaminase assay. [Related pubchem assays (depositor defined):AID493012, AID493028]; format: functional
# [3] = target: Peroxisome proliferator-activated receptor gamma/Nuclear receptor coactivator 1 (Homo sapiens, UniProt P37231); assay: as §1, with “1 (SRC-1)” for “2 (SRC-2)”, “assays (depositor defined):AID1300, AID1808, AID504735, AID631]” for “assays: 1297, 1032 ]”; format: protein assay
# [4] = target: Luciferin 4-monooxygenase (Photinus pyralis, UniProt P08659); assay: firefly luciferase enzyme inhibitors, dose response, biochemical, luminescence (AID 1891)
# [5] = target: Peroxisome proliferator-activated receptor gamma/Nuclear receptor coactivator 3 (Homo sapiens, UniProt P37231); assay: as §1, with “3 (SRC-3)” for “2 (SRC-2)”, “1301 (Confirmation screen.), 1048 (Primary screen.)]” for “1297, 1032 ]”; format: functional
# [6] = target: T1, Hexokinase HKDC1 (Homo sapiens, UniProt Q2TB90); assay: HKDC1 hexokinase activators, dose response, biochemical, W721R variant (AID 504730); format: functional
# T1 sequence (Q2TB90 whole entry): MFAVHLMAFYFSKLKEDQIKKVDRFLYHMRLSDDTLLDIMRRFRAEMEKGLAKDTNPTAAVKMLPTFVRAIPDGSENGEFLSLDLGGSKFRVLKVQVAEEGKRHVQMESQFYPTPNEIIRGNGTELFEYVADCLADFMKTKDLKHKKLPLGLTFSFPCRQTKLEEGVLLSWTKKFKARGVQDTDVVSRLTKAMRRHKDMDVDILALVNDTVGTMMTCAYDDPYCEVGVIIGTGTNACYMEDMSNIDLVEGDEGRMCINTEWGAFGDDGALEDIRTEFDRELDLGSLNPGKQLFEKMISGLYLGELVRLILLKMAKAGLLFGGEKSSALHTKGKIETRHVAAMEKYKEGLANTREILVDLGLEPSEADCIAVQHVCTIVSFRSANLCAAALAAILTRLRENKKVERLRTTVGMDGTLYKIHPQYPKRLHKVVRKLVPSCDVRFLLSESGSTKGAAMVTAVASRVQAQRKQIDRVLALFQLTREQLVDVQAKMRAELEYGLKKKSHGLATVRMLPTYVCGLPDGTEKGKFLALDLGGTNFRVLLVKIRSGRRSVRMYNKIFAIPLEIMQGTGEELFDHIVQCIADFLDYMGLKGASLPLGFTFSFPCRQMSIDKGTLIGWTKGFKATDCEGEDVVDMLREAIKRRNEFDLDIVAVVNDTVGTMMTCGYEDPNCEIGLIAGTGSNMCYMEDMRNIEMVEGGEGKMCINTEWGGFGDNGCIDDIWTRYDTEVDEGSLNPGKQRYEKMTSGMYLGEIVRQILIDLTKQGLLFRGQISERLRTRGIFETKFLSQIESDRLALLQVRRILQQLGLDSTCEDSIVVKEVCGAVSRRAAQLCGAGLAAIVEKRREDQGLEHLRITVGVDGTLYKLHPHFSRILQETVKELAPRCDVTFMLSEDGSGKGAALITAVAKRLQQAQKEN
# [7] = target: T2, Hexokinase-1 (Homo sapiens, UniProt P19367); assay: hexokinase 1 activators, dose response, selectivity assay for HKDC1 activator project, biochemical (AID 504762); format: functional
# T2 sequence (P19367 whole entry): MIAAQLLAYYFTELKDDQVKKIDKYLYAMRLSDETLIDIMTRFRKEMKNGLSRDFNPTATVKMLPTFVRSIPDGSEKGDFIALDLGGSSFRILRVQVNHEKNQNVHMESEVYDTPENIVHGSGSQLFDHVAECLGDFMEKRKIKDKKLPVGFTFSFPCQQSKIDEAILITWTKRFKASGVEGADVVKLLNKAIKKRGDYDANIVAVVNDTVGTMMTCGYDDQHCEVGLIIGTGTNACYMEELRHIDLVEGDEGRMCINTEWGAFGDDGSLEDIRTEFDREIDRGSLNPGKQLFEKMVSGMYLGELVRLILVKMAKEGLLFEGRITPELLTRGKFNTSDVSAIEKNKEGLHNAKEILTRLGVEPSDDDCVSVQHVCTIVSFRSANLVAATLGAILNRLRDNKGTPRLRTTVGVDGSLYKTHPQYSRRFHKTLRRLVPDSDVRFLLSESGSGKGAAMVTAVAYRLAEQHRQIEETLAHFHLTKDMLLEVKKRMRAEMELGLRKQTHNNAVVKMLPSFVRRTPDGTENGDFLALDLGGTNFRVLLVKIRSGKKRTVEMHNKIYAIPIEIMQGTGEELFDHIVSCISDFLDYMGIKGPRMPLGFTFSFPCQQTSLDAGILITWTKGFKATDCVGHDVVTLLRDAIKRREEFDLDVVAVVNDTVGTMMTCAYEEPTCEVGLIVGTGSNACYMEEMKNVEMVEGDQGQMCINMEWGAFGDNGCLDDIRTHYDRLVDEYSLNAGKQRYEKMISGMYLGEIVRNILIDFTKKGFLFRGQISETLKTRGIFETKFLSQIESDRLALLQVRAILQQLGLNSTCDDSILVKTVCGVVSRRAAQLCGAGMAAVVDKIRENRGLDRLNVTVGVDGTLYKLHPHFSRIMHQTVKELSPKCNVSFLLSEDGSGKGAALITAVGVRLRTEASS
# [8] = tested on: INS1; assay: beta cell apoptosis inhibitors, cytokine rescue, dose response, luminescence, retest (AID 449756); format: functional, cell-based; conditions: Rattus norvegicus;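 note: cell death triggered by IL-1 beta plus TNF-alpha plus IFN-gamma mixture; protective hits raise ATP signal compared with cytokine alone wells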
# [9] = Luminescence Cell-Based Dose Retest to Confirm Inhibitors of Cancer Stem Cells. [Related pubchem assays (depositor defined):AID2717, AID2721]; format: functional, Homo sapiens; conditions: Homo sapiens
# [10] = target: T3, Coagulation factor XII (Homo sapiens, UniProt P00748); format: functional;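 note: activated factor XIIa alpha cleaving a fluorogenic AMC peptide substrate; inhibitor potency from loss of enzyme activity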
# T3 sequence (P00748 whole entry): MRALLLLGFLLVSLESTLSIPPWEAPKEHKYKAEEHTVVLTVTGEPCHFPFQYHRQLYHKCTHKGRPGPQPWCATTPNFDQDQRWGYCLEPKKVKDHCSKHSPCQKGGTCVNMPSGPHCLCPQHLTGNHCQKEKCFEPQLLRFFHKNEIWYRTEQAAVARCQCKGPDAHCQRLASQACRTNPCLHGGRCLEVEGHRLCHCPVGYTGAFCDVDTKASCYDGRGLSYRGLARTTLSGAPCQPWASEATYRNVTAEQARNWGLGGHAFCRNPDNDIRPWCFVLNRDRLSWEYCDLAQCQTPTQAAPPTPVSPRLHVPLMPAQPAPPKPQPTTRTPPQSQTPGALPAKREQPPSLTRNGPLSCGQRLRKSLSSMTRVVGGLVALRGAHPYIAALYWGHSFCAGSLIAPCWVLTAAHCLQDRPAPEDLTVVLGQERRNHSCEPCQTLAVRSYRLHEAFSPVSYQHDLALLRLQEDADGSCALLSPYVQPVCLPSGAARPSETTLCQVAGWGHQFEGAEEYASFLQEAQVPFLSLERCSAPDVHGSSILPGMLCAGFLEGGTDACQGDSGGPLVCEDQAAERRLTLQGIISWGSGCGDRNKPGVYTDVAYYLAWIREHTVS
# [11] = target: T4, Rac GTPase-activating protein 1 (Homo sapiens, UniProt Q9H0H5); assay: MgcRacGAP GTPase-activating activity inhibitors, confirmation, biochemical, ADP Hunter fluorescence, primary and confirmatory (AID 624330); format: functional
# T4 sequence (Q9H0H5 whole entry): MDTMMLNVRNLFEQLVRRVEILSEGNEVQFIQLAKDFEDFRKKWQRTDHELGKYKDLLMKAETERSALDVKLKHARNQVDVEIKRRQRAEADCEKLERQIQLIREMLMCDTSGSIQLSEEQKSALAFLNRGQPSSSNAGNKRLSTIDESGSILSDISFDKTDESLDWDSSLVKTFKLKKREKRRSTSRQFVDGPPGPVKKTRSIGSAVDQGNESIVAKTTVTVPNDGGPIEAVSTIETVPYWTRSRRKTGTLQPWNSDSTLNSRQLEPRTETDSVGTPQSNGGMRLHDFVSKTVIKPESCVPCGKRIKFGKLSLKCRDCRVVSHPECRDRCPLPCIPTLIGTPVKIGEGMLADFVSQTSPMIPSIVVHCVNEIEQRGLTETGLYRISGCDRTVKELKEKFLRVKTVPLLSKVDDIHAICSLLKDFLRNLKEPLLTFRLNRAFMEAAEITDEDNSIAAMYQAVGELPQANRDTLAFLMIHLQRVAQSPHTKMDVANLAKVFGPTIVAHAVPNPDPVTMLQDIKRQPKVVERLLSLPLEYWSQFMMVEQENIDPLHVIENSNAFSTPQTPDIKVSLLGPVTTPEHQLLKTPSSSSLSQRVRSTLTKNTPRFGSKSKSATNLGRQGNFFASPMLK
# [12] = target: Troponin, cardiac muscle (Homo sapiens, UniProt P19429+P45379+P63316); assay: Fluorescence-based biochemical high throughput dose response assay for activators of the calcium sensitivity of cardiac Regulated Thin Filaments (RTF). [Related pubchem assays (depositor defined):AID493008, AID493018, AID504382, AID504383]; format: protein-complex assay
# [13] = target: Cytochrome P450 2C9 (Homo sapiens, UniProt P11712)
# [14] = target: DNA damage-inducible transcript 3 protein (Mus musculus, UniProt P35639); format: functional, Cricetulus griseus
# [15] = off-target signal loss in HeLa-CEM21 co-culture – HeLa F-luc CTL cells, cherry-picked, counter-screen for HIV-1 Env fusion inhibitor project, dose response (AID 652040); format: functional, cell-based;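 note: potency for signal decrease marking cytotoxic or nonspecific inhibition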
# [16] = ZM109 Env clade C HIV-1 fusion inhibitors, dose response, HeLa effector, CEM target cells, luciferase, cherry-pick (AID 652058); format: functional, cell-based
# [17] = inhibitors of clade B AD8 Env fusion, dose response, cell-based, cherry-pick (AID 652062); format: functional;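 note: luciferase signal from cell-cell fusion driven by HIV-1 clade B AD8 Env; potency is for inhibitors of fusion seen as a drop in luminescence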
# [18] = target: X-box-binding protein 1 (Homo sapiens, UniProt P17861); format: functional, Cricetulus griseus;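 note: confirmatory dose-response counter-screen serving a CHOP assay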
# [19] = target: T5, Endoribonuclease toxin MazF (Escherichia coli K-12, UniProt P0AE70); assay: MazF toxin RNase activators, dose response, biochemical, fluorescence, single-stranded RNA substrate, uHTS hits (AID 588481); format: functional
# T5 sequence (P0AE70 whole entry): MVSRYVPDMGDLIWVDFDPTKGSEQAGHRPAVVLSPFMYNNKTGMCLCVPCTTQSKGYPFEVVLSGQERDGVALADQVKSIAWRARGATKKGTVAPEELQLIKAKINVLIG
# [20] = target: T6, Heat shock factor protein 1 (Mus musculus, UniProt P38532); assay: inhibition of MG132-induced HSE-luciferase signal, confirmation, cell-based, NIH3T3, luminescence, dose retest (AID 2382); format: functional;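 note: NIH3T3 fibroblasts with HSF1-driven luciferase reporter stressed by proteasome inhibitor MG132; luminescence from HSF1-driven luciferase expression after 8 hours of MG132 stress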
# T6 sequence (P38532 whole entry): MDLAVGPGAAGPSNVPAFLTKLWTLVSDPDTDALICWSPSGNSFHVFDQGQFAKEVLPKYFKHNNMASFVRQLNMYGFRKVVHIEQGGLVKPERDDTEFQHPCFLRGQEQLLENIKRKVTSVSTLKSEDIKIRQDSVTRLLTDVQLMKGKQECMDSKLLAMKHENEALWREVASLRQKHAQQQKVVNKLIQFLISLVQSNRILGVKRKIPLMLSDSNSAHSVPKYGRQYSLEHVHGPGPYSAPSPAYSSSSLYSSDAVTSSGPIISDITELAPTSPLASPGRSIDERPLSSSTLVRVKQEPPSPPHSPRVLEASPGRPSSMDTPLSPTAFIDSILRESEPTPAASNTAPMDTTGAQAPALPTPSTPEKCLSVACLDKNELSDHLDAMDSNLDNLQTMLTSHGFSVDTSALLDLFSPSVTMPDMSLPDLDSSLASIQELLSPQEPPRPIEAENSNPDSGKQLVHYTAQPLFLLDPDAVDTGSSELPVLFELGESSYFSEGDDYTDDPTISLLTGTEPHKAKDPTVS
# [21] = inhibitors of HIV Env-driven cell fusion, dose response, cherry-pick (AID 652057); format: functional, cell-based
# [22] = target: T5, Endoribonuclease toxin MazF; assay: fluorescent RNA oligo signal without MazF, dose response, counter-screen for MazEF activator project, biochemical, fluorescence, single-stranded RNase substrate (AID 588502); format: functional
# Chain of Peroxisome proliferator-activated receptor gamma/Nuclear receptor coactivator 1 (P37231 whole entry): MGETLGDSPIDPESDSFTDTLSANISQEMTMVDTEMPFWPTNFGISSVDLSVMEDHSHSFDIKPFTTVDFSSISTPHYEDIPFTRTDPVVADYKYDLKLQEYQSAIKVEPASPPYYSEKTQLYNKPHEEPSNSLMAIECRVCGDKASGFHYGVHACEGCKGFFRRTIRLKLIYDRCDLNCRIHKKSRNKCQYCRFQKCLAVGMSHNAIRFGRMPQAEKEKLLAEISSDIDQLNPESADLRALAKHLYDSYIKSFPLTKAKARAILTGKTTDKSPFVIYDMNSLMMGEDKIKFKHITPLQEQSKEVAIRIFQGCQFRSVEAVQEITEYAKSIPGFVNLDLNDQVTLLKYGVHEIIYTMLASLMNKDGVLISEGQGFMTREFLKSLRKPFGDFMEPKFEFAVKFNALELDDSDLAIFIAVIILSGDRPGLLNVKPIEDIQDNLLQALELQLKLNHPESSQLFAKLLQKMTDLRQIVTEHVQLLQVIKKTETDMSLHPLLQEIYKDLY
# Chain of Peroxisome proliferator-activated receptor gamma/Nuclear receptor coactivator 1 (Q15788 whole entry, further chain): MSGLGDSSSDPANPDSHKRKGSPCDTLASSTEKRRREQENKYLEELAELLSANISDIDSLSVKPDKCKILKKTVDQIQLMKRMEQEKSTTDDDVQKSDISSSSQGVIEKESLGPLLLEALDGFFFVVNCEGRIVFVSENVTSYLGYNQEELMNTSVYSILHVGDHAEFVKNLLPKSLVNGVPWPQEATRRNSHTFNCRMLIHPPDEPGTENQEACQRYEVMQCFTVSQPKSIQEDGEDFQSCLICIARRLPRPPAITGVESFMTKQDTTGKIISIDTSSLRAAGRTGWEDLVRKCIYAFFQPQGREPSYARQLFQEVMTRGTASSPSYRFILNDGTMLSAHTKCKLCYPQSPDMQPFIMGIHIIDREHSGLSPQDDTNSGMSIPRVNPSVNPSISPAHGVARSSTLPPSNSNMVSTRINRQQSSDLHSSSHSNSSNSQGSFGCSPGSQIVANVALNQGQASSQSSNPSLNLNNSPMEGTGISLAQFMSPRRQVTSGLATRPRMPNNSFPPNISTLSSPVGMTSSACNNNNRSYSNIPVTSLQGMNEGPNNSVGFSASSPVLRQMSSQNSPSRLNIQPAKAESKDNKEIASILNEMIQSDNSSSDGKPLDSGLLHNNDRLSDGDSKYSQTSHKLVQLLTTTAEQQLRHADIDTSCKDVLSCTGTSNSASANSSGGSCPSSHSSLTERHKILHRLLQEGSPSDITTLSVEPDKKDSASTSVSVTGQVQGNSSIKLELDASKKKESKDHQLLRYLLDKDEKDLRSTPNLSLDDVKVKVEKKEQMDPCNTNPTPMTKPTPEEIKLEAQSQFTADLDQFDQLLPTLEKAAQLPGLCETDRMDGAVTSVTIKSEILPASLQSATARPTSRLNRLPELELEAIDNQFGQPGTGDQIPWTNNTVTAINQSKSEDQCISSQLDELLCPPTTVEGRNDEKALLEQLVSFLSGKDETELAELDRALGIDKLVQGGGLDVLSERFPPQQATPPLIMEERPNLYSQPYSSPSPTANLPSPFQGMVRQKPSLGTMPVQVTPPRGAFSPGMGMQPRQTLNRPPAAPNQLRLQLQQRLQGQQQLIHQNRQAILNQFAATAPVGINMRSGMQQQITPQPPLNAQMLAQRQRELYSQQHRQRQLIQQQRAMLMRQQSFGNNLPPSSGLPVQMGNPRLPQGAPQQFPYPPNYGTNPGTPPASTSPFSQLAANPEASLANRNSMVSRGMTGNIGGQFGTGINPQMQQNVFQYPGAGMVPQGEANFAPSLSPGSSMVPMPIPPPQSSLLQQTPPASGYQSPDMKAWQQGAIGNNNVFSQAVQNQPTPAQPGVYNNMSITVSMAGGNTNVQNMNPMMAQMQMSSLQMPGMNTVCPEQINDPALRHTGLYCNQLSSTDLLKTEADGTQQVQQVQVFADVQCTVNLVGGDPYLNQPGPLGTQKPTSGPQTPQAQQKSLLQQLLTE
# Chain of Peroxisome proliferator-activated receptor gamma/Nuclear receptor coactivator 3 (P37231 whole entry): as the sequence (P37231 whole entry) above
# Chain of Peroxisome proliferator-activated receptor gamma/Nuclear receptor coactivator 3 (Q9Y6Q9 whole entry, further chain): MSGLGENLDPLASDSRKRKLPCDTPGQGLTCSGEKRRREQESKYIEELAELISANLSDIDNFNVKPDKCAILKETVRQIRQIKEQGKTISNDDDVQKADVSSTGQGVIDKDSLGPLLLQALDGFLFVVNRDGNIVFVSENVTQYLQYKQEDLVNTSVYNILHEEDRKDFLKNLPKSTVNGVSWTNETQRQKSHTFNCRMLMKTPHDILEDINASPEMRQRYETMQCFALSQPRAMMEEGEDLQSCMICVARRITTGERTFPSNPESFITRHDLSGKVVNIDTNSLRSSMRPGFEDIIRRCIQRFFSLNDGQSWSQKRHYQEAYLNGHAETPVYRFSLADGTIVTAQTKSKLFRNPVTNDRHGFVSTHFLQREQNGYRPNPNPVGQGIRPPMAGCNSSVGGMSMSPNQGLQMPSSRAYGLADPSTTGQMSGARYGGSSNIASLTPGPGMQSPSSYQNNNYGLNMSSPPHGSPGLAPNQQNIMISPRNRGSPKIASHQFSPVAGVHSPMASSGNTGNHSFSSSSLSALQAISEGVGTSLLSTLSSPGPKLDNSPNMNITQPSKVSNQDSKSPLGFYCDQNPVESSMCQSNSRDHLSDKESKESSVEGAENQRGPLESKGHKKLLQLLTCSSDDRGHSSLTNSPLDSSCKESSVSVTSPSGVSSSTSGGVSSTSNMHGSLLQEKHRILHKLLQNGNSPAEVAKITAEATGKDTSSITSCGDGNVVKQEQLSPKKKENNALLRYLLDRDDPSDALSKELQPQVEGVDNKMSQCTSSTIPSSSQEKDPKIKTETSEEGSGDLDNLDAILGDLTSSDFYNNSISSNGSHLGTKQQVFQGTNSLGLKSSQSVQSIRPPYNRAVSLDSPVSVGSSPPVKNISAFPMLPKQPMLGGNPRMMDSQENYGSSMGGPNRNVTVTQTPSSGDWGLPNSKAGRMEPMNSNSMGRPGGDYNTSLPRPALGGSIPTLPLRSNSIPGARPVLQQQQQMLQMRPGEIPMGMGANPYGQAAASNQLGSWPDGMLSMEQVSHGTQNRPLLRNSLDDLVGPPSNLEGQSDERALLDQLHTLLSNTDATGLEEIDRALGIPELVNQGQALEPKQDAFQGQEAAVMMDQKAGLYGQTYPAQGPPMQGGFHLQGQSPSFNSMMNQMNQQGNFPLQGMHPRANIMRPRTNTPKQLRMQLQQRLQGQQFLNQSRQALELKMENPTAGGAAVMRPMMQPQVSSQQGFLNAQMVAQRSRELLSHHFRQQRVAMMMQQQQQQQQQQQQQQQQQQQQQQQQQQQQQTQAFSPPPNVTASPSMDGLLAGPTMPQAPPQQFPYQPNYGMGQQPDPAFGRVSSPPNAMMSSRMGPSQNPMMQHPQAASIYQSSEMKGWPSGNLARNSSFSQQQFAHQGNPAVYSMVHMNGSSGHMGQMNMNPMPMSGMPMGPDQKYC
# Chain of X-box-binding protein 1 (P17861 whole entry): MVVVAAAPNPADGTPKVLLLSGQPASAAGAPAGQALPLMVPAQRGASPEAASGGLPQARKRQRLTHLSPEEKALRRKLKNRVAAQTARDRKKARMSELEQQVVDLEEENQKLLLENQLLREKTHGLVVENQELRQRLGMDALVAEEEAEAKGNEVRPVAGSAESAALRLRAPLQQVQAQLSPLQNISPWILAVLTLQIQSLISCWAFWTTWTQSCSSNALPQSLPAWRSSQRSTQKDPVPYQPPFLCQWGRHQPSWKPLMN
# Chain of DNA dC->dU-editing enzyme APOBEC-3G (Q9HC16 whole entry): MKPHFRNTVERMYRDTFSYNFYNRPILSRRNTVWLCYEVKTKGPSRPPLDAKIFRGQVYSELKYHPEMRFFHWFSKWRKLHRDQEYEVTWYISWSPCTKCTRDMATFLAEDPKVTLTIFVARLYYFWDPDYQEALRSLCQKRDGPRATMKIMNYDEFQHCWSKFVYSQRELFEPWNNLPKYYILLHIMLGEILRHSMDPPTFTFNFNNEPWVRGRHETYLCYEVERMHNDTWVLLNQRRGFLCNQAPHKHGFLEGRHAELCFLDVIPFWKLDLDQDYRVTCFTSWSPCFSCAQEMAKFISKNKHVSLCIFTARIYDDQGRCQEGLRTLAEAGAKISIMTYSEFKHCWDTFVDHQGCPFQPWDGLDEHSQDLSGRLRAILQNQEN
# Chain of DNA damage-inducible transcript 3 protein (P35639 whole entry, the tested form may be a part): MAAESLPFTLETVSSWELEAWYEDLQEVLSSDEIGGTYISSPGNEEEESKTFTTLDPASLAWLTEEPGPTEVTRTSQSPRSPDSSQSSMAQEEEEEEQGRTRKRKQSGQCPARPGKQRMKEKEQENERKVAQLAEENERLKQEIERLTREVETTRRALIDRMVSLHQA
smiles,measurement,setting,value
C=CCn1c(-c2cc(Cl)ccc2OC)n[nH]c1=S,EC50,[1],28.9 µM (not active)
same,IC50,[2],8.82 µM (active)
same,EC50,[3],21.4 µM (inactive)
same,EC50,[4],> 112 µM (not active)
same,EC50,[5],> 79.4 µM (not active)
Cc1nc2c3cc(F)ccc3n(Cc3ccccc3)c2s1,EC50,[6],39.2 µM (inactive)
same,EC50,[7],57.5 µM (inactive)
same,AC50,[8],> 260 µM (inactive)
same,AC50,[9],83.6 µM (active)
Cc1ccc(OCc2nnc(SCC(=O)O)n2N)cc1,IC50,[10],> 50 µM (inactive)
COC(=O)c1ccc(NC(=S)Nc2ccc(O)cc2)cc1,IC50,[10],> 50 µM (inactive)
same,IC50,[11],43.1 µM (active)
CCN1C(=O)/C(=C/C=C2/SCCN2C)SC1=S,EC50,[12],1.54 µM (active)
same,AC50,[13],4.47 µM (inconclusive)
Cc1cccc2cc3c(N)c(C#N)sc3nc12,Absolute IC50 (CHOP),[14],10 µM
same,AC50,[15],1.94 µM (active)
same,AC50,[16],6.95 µM (active)
same,AC50,[17],5.1 µM (active)
same,Absolute IC50 (XBP1),[18],10 µM
same,EC50,[19],> 99 µM (inactive)
same,EC50,[20],> 195 µM (not active)
same,AC50,[21],2.64 µM (active)
same,EC50,[22],43.1 µM (inactive)
O=C(CNCc1cccs1)Nc1ccc(S(=O)(=O)N2CCCCC2)cc1,EC50,[12],> 71.5 µM (inactive)
CCN1CCCC1CNC(=O)CSc1cc(=O)n(CC)c2ccccc12 (configuration not stated),EC50,[1],> 79.4 µM (not active)
same,EC50,[3],> 79.4 µM (inactive)
same,EC50,[5],> 79.4 µM (not active)

# Reference: ChEMBL document CHEMBL1201862, “PubChem BioAssay data set” (2004)
